Key:
[1] = molecular target: LcrF (VirF) (Yersinia pestis, UniProt P28808); assay: biochemical; format: binding, Y. pseudotuberculosis
[2] = molecular target: T1, ExsA (Pseudomonas aeruginosa, UniProt P26993); assay: In vitro activity of Mar inhibitors against ExsA: cell-free DNA binding assay; conditions: purified ExsA from P. aeruginosa, inhibition of DNA binding in vitro
T1 construct: made in house
T1 sequence (P26993 1-278): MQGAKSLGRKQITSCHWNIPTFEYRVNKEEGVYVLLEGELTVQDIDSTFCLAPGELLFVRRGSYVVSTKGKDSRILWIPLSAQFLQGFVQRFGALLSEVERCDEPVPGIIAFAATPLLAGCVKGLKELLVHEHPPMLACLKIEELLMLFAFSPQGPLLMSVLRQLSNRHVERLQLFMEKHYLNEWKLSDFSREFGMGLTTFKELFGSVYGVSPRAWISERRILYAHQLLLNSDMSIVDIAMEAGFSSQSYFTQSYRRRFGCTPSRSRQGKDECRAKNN

[3] = system: Yersinia pseudotuberculosis
[4] = system: P. aeruginosa; assay: Whole cell assay: cytotoxicity of P. aeruginosa toward J774 cells (CytoTox 96, LDH release); conditions: percent cytotoxicity of treated P. aeruginosa toward J774 cells

LcrF (VirF), sequence (P28808 whole entry, looked up): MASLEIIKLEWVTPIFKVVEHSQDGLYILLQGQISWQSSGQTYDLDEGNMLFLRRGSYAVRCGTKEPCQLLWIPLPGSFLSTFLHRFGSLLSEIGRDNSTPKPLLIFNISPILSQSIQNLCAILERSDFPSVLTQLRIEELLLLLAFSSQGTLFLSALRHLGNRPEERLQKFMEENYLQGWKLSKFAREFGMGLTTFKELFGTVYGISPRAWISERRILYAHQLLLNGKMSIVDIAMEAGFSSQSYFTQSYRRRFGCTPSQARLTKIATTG

SMILES	EC50 [1] [µM]	EC50 [2] [µM]	Cytotoxicity at 50 μg/mL Yersinia [3]	Cytotoxicity at 50 μg/mL Pseudomonas [4]
CCc1cc(-c2nc3ccc([N+](=O)[O-])cc3n2O)ccc1NC(=O)c1ccc(C(C)=O)cc1 [AA]	10.1 to 25	10.1 to 25	* (key: *: percent cytotoxicity above 75% at 50 μg/mL; **: cytotoxicities below 75% at 50 μg/mL)	* (percent cytotoxicities above 75% at 50 mg/mL)
COc1cc(C(=O)Nc2ccc(-c3nc4ccc([N+](=O)[O-])cc4n3O)cc2)ccc1F [AB]	10.1 to 25	10.1 to 25	* (key: *: percent cytotoxicity above 75% at 50 μg/mL; **: cytotoxicities below 75% at 50 μg/mL)	* (percent cytotoxicities above 75% at 50 mg/mL)
O=C(Nc1ccc(-c2nc3ccc([N+](=O)[O-])cc3n2O)cc1)c1ccccc1O [AC]	10.1 to 25	10.1 to 25	* (key: *: percent cytotoxicity above 75% at 50 μg/mL; **: cytotoxicities below 75% at 50 μg/mL)	* (percent cytotoxicities above 75% at 50 mg/mL)
CCc1cc(-c2nc3ccc([N+](=O)[O-])cc3n2O)ccc1NC(=O)/C=C/c1ccc(C)cc1 [AE]	< 10	< 10	* (key: *: percent cytotoxicity above 75% at 50 μg/mL; **: cytotoxicities below 75% at 50 μg/mL)	* (percent cytotoxicities above 75% at 50 mg/mL)
CC(=O)c1ccc(C(=O)Nc2ccc(-c3nc4ccc([N+](=O)[O-])cc4n3O)nc2)cc1 [AG]	> 25.1	10.1 to 25	* (key: *: percent cytotoxicity above 75% at 50 μg/mL; **: cytotoxicities below 75% at 50 μg/mL)	* (percent cytotoxicities above 75% at 50 mg/mL)
O=C(Nc1ccc(-c2nc3ccc([N+](=O)[O-])cc3n2O)c(F)c1)c1ccc(F)cc1 [AH]	10.1 to 25	10.1 to 25	* (key: *: percent cytotoxicity above 75% at 50 μg/mL; **: cytotoxicities below 75% at 50 μg/mL)	* (percent cytotoxicities above 75% at 50 mg/mL)
COc1cc(NC(=O)c2ccc(F)cc2)ccc1-c1nc2ccc([N+](=O)[O-])cc2n1O [AI]	> 25.1	10.1 to 25	* (key: *: percent cytotoxicity above 75% at 50 μg/mL; **: cytotoxicities below 75% at 50 μg/mL)	* (percent cytotoxicities above 75% at 50 mg/mL)
O=C(Nc1ccc(-c2nc3ccc([N+](=O)[O-])cc3n2O)cn1)c1ccc(F)cc1 [AJ]	10.1 to 25	10.1 to 25	* (key: *: percent cytotoxicity above 75% at 50 μg/mL; **: cytotoxicities below 75% at 50 μg/mL)	* (percent cytotoxicities above 75% at 50 mg/mL)
O=C(/C=C/c1ccc(F)c(CP(=O)(O)O)c1)Nc1ccc(-c2nc3ccc([N+](=O)[O-])cc3n2O)cc1 [AM]	10.1 to 25	10.1 to 25	* (key: *: percent cytotoxicity above 75% at 50 μg/mL; **: cytotoxicities below 75% at 50 μg/mL)	* (percent cytotoxicities above 75% at 50 mg/mL)
O=C(/C=C/c1ccc(F)cc1)Nc1ccc(-c2nc3ccc([N+](=O)[O-])cc3n2O)cn1 [AN]	< 10	< 10	* (key: *: percent cytotoxicity above 75% at 50 μg/mL; **: cytotoxicities below 75% at 50 μg/mL)	* (percent cytotoxicities above 75% at 50 mg/mL)
O=C(/C=C/c1ccc(F)cc1)Nc1ccc(-c2nc3ccc([N+](=O)[O-])cc3n2O)nc1 [AO]	10.1 to 25	< 10	* (key: *: percent cytotoxicity above 75% at 50 μg/mL; **: cytotoxicities below 75% at 50 μg/mL)	* (percent cytotoxicities above 75% at 50 mg/mL)
O=C(/C=C/c1ccc(F)cc1F)Nc1ccc(-c2nc3ccc([N+](=O)[O-])cc3n2O)nc1 [AP]	< 10	< 10	* (key: *: percent cytotoxicity above 75% at 50 μg/mL; **: cytotoxicities below 75% at 50 μg/mL)	* (percent cytotoxicities above 75% at 50 mg/mL)
O=C(/C=C/c1ccc(F)cc1F)Nc1ccc(-c2nc3ccc([N+](=O)[O-])cc3n2O)cn1 [AQ]	< 10	< 10	* (key: *: percent cytotoxicity above 75% at 50 μg/mL; **: cytotoxicities below 75% at 50 μg/mL)	* (percent cytotoxicities above 75% at 50 mg/mL)
CCOP(=O)(Cc1cc(/C=C/C(=O)Nc2ccc(-c3nc4ccc([N+](=O)[O-])cc4n3O)cc2)ccc1F)OCC [AT]	< 10	< 10	* (key: *: percent cytotoxicity above 75% at 50 μg/mL; **: cytotoxicities below 75% at 50 μg/mL)	* (percent cytotoxicities above 75% at 50 mg/mL)
O=C(/C=C/c1ccc(F)cc1)Nc1ccc(-c2nc3ncc([N+](=O)[O-])cc3n2O)c(F)c1 [AV]	< 10	< 10	* (key: *: percent cytotoxicity above 75% at 50 μg/mL; **: cytotoxicities below 75% at 50 μg/mL)	* (percent cytotoxicities above 75% at 50 mg/mL)
O=C(/C=C/c1ccc(F)cc1)Nc1ccc(-c2nc3ccc([N+](=O)[O-])cc3n2O)c(F)c1 [AW]	< 10	10.1 to 25	** (key: *: percent cytotoxicity above 75% at 50 μg/mL; **: cytotoxicities below 75% at 50 μg/mL)	* (percent cytotoxicities above 75% at 50 mg/mL)
CC(=O)c1ccc(C(=O)Nc2ccc(-c3nc4cc(C)c([N+](=O)[O-])cc4n3O)cc2)cc1 [BE]	< 10	< 10	* (key: *: percent cytotoxicity above 75% at 50 μg/mL; **: cytotoxicities below 75% at 50 μg/mL)	* (percent cytotoxicities above 75% at 50 mg/mL)
COc1cc(NC(=O)c2ccc(C(C)=O)cc2)ccc1-c1nc2ccc([N+](=O)[O-])cc2n1O [BG]	> 25.1	10.1 to 25	* (key: *: percent cytotoxicity above 75% at 50 μg/mL; **: cytotoxicities below 75% at 50 μg/mL)	** (cytotoxicities below 75% at 50 mg/mL)
COc1cc(NC(=O)/C=C/c2ccc(F)cc2)ccc1-c1nc2ccc([N+](=O)[O-])cc2n1O [BH]	10.1 to 25	10.1 to 25	* (key: *: percent cytotoxicity above 75% at 50 μg/mL; **: cytotoxicities below 75% at 50 μg/mL)	* (percent cytotoxicities above 75% at 50 mg/mL)
O=C(Nc1ccc(-c2nc3ccc([N+](=O)[O-])cc3n2O)cc1)C1=Cc2ccccc2OC1 [BM]	10.1 to 25	10.1 to 25	* (key: *: percent cytotoxicity above 75% at 50 μg/mL; **: cytotoxicities below 75% at 50 μg/mL)	* (percent cytotoxicities above 75% at 50 mg/mL)
O=C(/C=C/c1ccc(F)cc1)Nc1ccc(-c2nc3ccc([N+](=O)[O-])cc3n2OCP(=O)(O)O)cc1 [Compound AL, (2-{4-[(E)-3-(4-Fluoro-phenyl)-acryloylamino]-phenyl}-6-nitro-benzoimidazol-1-yloxymethyl)-phosphonic Acid]	< 10	< 10	** (key: *: percent cytotoxicity above 75% at 50 μg/mL; **: cytotoxicities below 75% at 50 μg/mL)	* (percent cytotoxicities above 75% at 50 mg/mL)
CC(=O)c1ccc(/C=C/C(=O)Nc2ccc(-c3nc4ccc([N+](=O)[O-])cc4n3O)cc2)cc1 [Compound BQ, (E)-3-(4-Acetyl-phenyl)-N-[4-(1-hydroxy-6-nitro-1H-benzoimidazol-2-yl)-phenyl]-acrylamide]	10.1 to 25	< 10		** (cytotoxicities below 75% at 50 mg/mL)
O=C(/C=C/c1ccc(F)cc1)Nc1ccc(-c2nc3ccc(-n4cccn4)cc3n2O)cc1 [Compound CL, (E)-3-(4-Fluoro-phenyl)-N-[4-(1-hydroxy-6-pyrazol-1-yl-1H-benzoimidazol-2-yl)-phenyl]-acrylamide]	> 25.1	> 25.1		* (percent cytotoxicities above 75% at 50 mg/mL)
